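Compound exposure: 48 hours, 5 concentrations, 96-well plates. Abbreviation: GI50, concentration required for 50% inhibition of growth.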 Active and inactive are the calls of the source. No stated cut-off is given here; in the data, active = GI50 up to about 1.1 µM and inactive = higher. Starred links: 1 amine or outer side, 2 acyl side, 3 side chain; linkers in the order of their positions; H or OH if unused. Non-standard residues stand in square brackets, D forms with d. Residues, ends and D or L forms follow the SMILES beside them. X35 = C=CCC(O[*:1])C(=O)[*:2]; NMeV = CN[CH](C(=O)O)C(C)C; NMeA = CN[CH](C)C(=O)O; βAla = NCCC(=O)O
What was measured:
Assay in all cases: NCI-60 cell line screen, 48 h
OVCAR-5 = system: OVCAR-5
SW-620 = system: SW-620
HT-29 = system: HT-29
MCF7 = system: MCF7
KM12 = system: KM12
RPMI-8226 = system: RPMI-8226
UO-31 = system: UO-31
PC-3 = system: PC-3
SF-539 = system: SF-539
U-251 = system: U-251
EKVX = system: EKVX
MDA-N = system: MDA-N
IGROV-1 = system: IGROV-1
SK-MEL-2 = system: SK-MEL-2
TK-10 = system: TK-10
SF-268 = system: SF-268
HCT-116 = system: HCT-116
DU-145 = system: DU-145
786-0 = system: 786-0
HCC 2998 = system: HCC 2998

Row | Structure (SMILES) | GI50 (OVCAR-5) | GI50 (SW-620) | GI50 (HT-29) | GI50 (MCF7) | GI50 (KM12) | GI50 (RPMI-8226) | GI50 (UO-31) | GI50 (PC-3) | GI50 (SF-539) | GI50 (U-251) | GI50 (EKVX) | GI50 (MDA-N) | GI50 (IGROV-1) | GI50 (SK-MEL-2) | GI50 (TK-10) | GI50 (SF-268) | GI50 (HCT-116) | GI50 (DU-145) | GI50 (786-0) | GI50 (HCC 2998)
1 | O=c1c2ncn(COCCCl)c2n(-c2ccccc2)c(=S)n1-c1ccccc1 | > 100 µM (inactive) | > 100 µM (inactive) | > 100 µM (inactive) | > 100 µM (inactive) | > 100 µM (inactive) | 79.8 µM (inactive) | 57.3 µM (inactive) | > 100 µM (inactive) | > 100 µM (inactive) | > 100 µM (inactive) | > 100 µM (inactive) | > 100 µM (inactive) | > 100 µM (inactive) | > 100 µM (inactive) | > 100 µM (inactive) | > 100 µM (inactive) | > 100 µM (inactive) | > 100 µM (inactive) | > 100 µM (inactive) | > 100 µM (inactive)
2 | C=CCC1OC(=O)CCNC(=O)C(C)N(C)C(=O)C(C(C)C)N(C)C(=O)C(C(C)CC)NC(=O)C2CCCN2C1=O (stereo not given) (cyclo([X35]PI[NMeV][NMeA][βAla]); configuration not given here) | > 100 µM (inactive) | 6.64 µM (inactive) | 3.91 µM (inactive) | > 100 µM (inactive) | 10.8 µM (inactive) | 2.62 µM (inactive) | 22.8 µM (inactive) | 5.85 µM (inactive) | 45.1 µM (inactive) | 49.5 µM (inactive) | 3.23 µM (inactive) | > 100 µM (inactive) | 7.06 µM (inactive) | 9.08 µM (inactive) | > 100 µM (inactive) | 81.1 µM (inactive) | 3.68 µM (inactive) | 44.9 µM (inactive) | 4.61 µM (inactive) | 2.25 µM (inactive)
3 | CC[C@@]1(O)C(=O)OCc2c1cc1n(c2=O)Cc2cc3ccccc3nc2-1 [CAMPTOTHECIN] | 0.0809 µM (active) | 0.0366 µM (active) | 0.0449 µM (active) | 0.0113 µM (active) | 0.159 µM (active) | 0.0336 µM (active) | 0.0303 µM (active) | 0.0644 µM (active) | 0.0145 µM (active) | 0.0111 µM (active) | 0.0951 µM (active) | 0.145 µM (active) | 0.184 µM (active) | 0.298 µM (active) | 1.32 µM (inactive) | 0.0115 µM (active) | 0.023 µM (active) | < 0.01 µM (active) | < 0.0214 µM (active) | 0.159 µM (active)
